Columns and labels:
S. pneumoniae D39V [1] = experiment: fitness (endpoint OD595 vs no drug) (fraction); higher = more growth
Summary of the method: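 Plates with 384 wells were inoculated at OD595 0.01 using 30 µl of TSB, LB Lennox or CY, or 55 µl for S. pneumoniae. Incubation was at 37 °C, with OD595 measured every 30 min for 14 h. Fitness is the stationary-phase transition optical density over the robust mean of no-drug control wells, after first-reading background subtraction; it is capped at 1.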

S. aureus Newman = experiment: Bliss interaction score (quartile over a dose matrix) (fitness difference); higher = more antagonism (negative = synergy)
Summary of the method: (§1)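 Fitness is OD595 at stationary-phase entry relative to the plate's robust no-drug mean, capped at 1. Single-drug fitness was inferred from combinations. The Bliss score is observed minus product-expected fitness, summarised by quartiles over technical, biological and donor/recipient replicates.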

B. subtilis 168 = experiment: as above
Summary of the method: as §1

S. pneumoniae D39V [2] = experiment: as above
Summary of the method: as §1

S. aureus DSM 20231 = experiment: as above
Summary of the method: as §1
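For Bliss interaction score (quartile over a dose matrix) in this document: first quartile when negative (synergy) and third quartile when positive (antagonism).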

O=C1CN(/N=C/c2ccc([N+](=O)[O-])o2)C(=O)N1 [Nitrofurantoin] + CN[C@@H]1[C@H](O)[C@H](NC)[C@H]2O[C@@]3(O)C(=O)C[C@@H](C)O[C@H]3O[C@@H]2[C@H]1O [Spectinomycin]
fitness, S. pneumoniae D39V [1]
Settings	partner 4 µg/mL	partner 8 µg/mL	partner 16 µg/mL
first compound 1.285 µg/mL	0.96	0.889	0.829
first compound 2.57 µg/mL	0.935	0.917	0.829

fitness, S. pneumoniae D39V [1], one replicate
Settings	first compound 2 µg/mL	first compound 4 µg/mL	first compound 5.14 µg/mL	first compound 8 µg/mL
partner 4 µg/mL	0.966	0.948	0.859	0.895
partner 8 µg/mL	0.892	0.864	0.865	0.879
partner 16 µg/mL	–	–	0.793	–

Settings	Bliss interaction score
B. subtilis 168	-0.0552
S. aureus DSM 20231	-0.0743
S. aureus Newman	-0.0511
S. pneumoniae D39V [2]	0.0652

CC[C@H]1OC(=O)[C@H](C)[C@@H](O[C@H]2C[C@@](C)(OC)[C@@H](O)[C@H](C)O2)[C@H](C)[C@@H](O[C@@H]2O[C@H](C)C[C@H](N(C)C)[C@H]2O)[C@](C)(OC)C[C@@H](C)C(=O)[C@H](C)[C@@H](O)[C@]1(C)O [Clarithromycin] + CC(C1CCC(C(O1)OC2C(CC(C(C2O)OC3C(C(C(CO3)(C)O)NC)O)N)N)N)NC [Gentamicin]
fitness, S. pneumoniae D39V [1], one replicate, main component drawn
Settings	first compound 0.007812 µg/mL	first compound 0.01562 µg/mL	first compound 0.03125 µg/mL
partner 2 µg/mL	0.876	0.84	0.63
partner 4 µg/mL	0.873	0.878	0.651
partner 8 µg/mL	0.885	0.842	0.645

fitness, S. pneumoniae D39V [1], main component drawn
Settings	first compound 0.0625 µg/mL	first compound 0.07 µg/mL	first compound 0.125 µg/mL	first compound 0.14 µg/mL	first compound 0.25 µg/mL	first compound 0.28 µg/mL
partner 2 µg/mL	0.45	0.146	0.228	0.0838	0.0804	0.0949
partner 4 µg/mL	0.447	0.144	0.206	0.0957	0.0925	0.0738
partner 8 µg/mL	0.349	0.195	0.169	0.132	0.104	0.0605

main component drawn
Settings	Bliss interaction score
B. subtilis 168	0.0895
S. aureus DSM 20231	0.12
S. aureus Newman	0.108
S. pneumoniae D39V [2]	-0.06

C[C@@H](O)[C@H]1C(=O)N2C(C(=O)O)=C(SCCNC=N)C[C@H]12 [Imipenem] + CN(C)c1cc(NC(=O)CNC(C)(C)C)c(O)c2c1C[C@H]1C[C@H]3[C@H](N(C)C)C(O)=C(C(N)=O)C(=O)[C@@]3(O)C(O)=C1C2=O [Tigecycline]
fitness, S. pneumoniae D39V [1]
Settings	first compound 0.005 µg/mL	first compound 0.0065 µg/mL	first compound 0.01 µg/mL	first compound 0.013 µg/mL	first compound 0.02 µg/mL	first compound 0.026 µg/mL
partner 0.65 µg/mL	0.925	0.992	0.898	0.999	0.932	0.863
partner 1.3 µg/mL	0.922	0.979	0.874	0.893	0.938	0.946
partner 2.6 µg/mL	0.859	0.994	0.87	0.943	0.877	0.956

Settings	Bliss interaction score
B. subtilis 168	-0.0658
S. aureus DSM 20231	0.0348
S. aureus Newman	-0.0535
S. pneumoniae D39V [2]	0.0689

O=C1CN(/N=C/c2ccc([N+](=O)[O-])o2)C(=O)N1 [Nitrofurantoin] + CN(C)c1cc(NC(=O)CNC(C)(C)C)c(O)c2c1C[C@H]1C[C@H]3[C@H](N(C)C)C(O)=C(C(N)=O)C(=O)[C@@]3(O)C(O)=C1C2=O [Tigecycline]
fitness, S. pneumoniae D39V [1]
Settings	first compound 1.285 µg/mL	first compound 2 µg/mL	first compound 2.57 µg/mL	first compound 4 µg/mL	first compound 8 µg/mL
partner 0.65 µg/mL	0.939	0.96	0.932	0.971	0.921
partner 1.3 µg/mL	0.957	0.958	0.957	0.941	0.881
partner 2.6 µg/mL	0.949	0.919	0.936	0.937	0.9

S. pneumoniae D39V [1], first compound 5.14 µg/mL, one replicate
Settings	fitness
partner 0.65 µg/mL	0.922
partner 1.3 µg/mL	0.92
partner 2.6 µg/mL	0.894

Settings	Bliss interaction score
B. subtilis 168	0.178
S. aureus DSM 20231	0.0547
S. aureus Newman	0.0708
S. pneumoniae D39V [2]	0.0879

COc1c(N2C[C@@H]3CCCN[C@@H]3C2)c(F)cc2c(=O)c(C(=O)O)cn(C3CC3)c12 [Moxifloxacin] + CO[C@H]1/C=C/O[C@@]2(C)Oc3c(C)c(O)c4c(O)c(c(/C=N/N5CCN(C)CC5)c(O)c4c3C2=O)NC(=O)/C(C)=C\C=C\[C@H](C)[C@H](O)[C@@H](C)[C@@H](O)[C@@H](C)[C@H](OC(C)=O)[C@@H]1C [Rifampicin]
fitness, S. pneumoniae D39V [1], one replicate
Settings	first compound 0.0037 µg/mL	first compound 0.0075 µg/mL	first compound 0.015 µg/mL
partner 0.025 µg/mL	0.868	0.822	0.779
partner 0.2 µg/mL	0	0	0

fitness, S. pneumoniae D39V [1]
Settings	first compound 0.0037 µg/mL	first compound 0.005 µg/mL	first compound 0.0075 µg/mL	first compound 0.01 µg/mL	first compound 0.015 µg/mL	first compound 0.02 µg/mL
partner 0.05 µg/mL	0.776	0.919	0.725	0.908	0.713	0.908
partner 0.1 µg/mL	0.317	–	0.295	–	0.354	–
partner 0.2 µg/mL	–	0.168	–	0.196	–	0.198

Settings	Bliss interaction score
B. subtilis 168	-0.0221
S. aureus DSM 20231	-0.0701
S. aureus Newman	-0.0223
S. pneumoniae D39V [2]	-0.0845
